# Experimental data as given in patent publication US20190054045A1, “METHODS AND COMPOSITIONS FOR TREATING SKIN CONDITIONS” (priority 2017, published 2019).
# What was measured:
# [1] = system: surgical defect; assay: Topical metformin to treat scarring on open skin (surgical defect, patient case); assay type: in vivo, human; settings: topical ointment 250 mg/mL twice a day; within 4 weeks; in comparison to patients healing with topical petrolatum alone; observation by physician
# Experimental: A patient with a previous surgical scar from removal of skin cancer with a scalpel received topical metformin ointment at 250 mg/mL with directions to apply the ointment twice a day to the surgical defect until healed (approximately 2-4 weeks).
# [2] = system: burn scar; assay: Topical metformin to treat a burn scar on intact skin (patient case); assay type: in vivo, human; settings: 250 mg/mL in petrolatum ointment, two times per day
# Experimental: A patient with a burn scar from a previously treated skin cancer complaining of a raised red and itchy scar on their chest received topical metformin in petrolatum ointment at 250 mg/mL with directions to apply the lotion to the affected area (red, raised fibrotic scarred skin on chest) two times per day.
smiles,measurement,setting,value
CN(C)C(=N)N=C(N)N [metformin],scarring and redness of area,[1],minimal scaring and redness
same,scarring of the skin,[2]; after one month,further improved
same,"scarring of the skin (redness, itch, softness)","[2]; within 14 days, observation by physician and patient","visibly reduced with less redness, itch, and increased softness"
